From paper PMC10135567, “New Indole-3-Propionic Acid and 5-Methoxy-Indole Carboxylic Acid Derived Hydrazone Hybrids as Multifunctional Neuroprotectors” (Antioxidants, 2023)

How the values were obtained:
[1] = Superoxide radical scavenging, xanthine/xanthine oxidase/NBT system; assay type: biochemical; details: for decrease of NBT reduction as compared to the controls: 100 µM (highest tested concentration); for increase of absorbance ratio as compared to the controls: 100 µM; for absorbance ratio (NBT reduction, % of control): 1, 10, 50 and 100 µM
Procedure: The 1 mL cuvette for the control contained 1 mM xanthine, 20 µL xanthine oxidase (100 IU/L), and 0.04 mM NBT [43, 44]. In the sample compositions, the tested hydrazones at different concentrations were added. All measurement compositions were incubated at 37 °C, and the absorbance was determined spectrophotometrically at 560 nm via Shimadzu UV-1601 UV-vis spectrophotometer.
The potential capability of the investigated compounds to prevent the superoxide-anion radical-induced NBT reduction was investigated spectrophotometrically by xanthine-oxidase assay. The assay was carried out at the final concentration of the tested compounds, at 1, 10, 50, and 100 µM.

[2] = MTT cell viability assay (cytotoxicity), SH-SY5Y; details: human, SH-SY5Y neuroblastoma cells
Procedure: Neuroblastoma cell line SH-SY5Y (94030304) was acquired from the European Collection of Cell Cultures (ECACC, Salisbury, UK). Cells were cultured in a medium prepared with RPMI basic media supplemented with 10% heat-inactivated FBS (fetal bovine serum), 2 mM L-glutamine, 1% antibiotics (penicillin/streptomycin), and incubated at 37 °C in a humidified atmosphere containing 5% of CO2. The culture’s medium was replaced at a time interval of 2–3 days.
Cell viability was assessed via the mitochondrial reductase-dependent reaction of (3-(4,5-dimethylthiazol-2-yl)- 2,5-diphenyl tetrazolium bromide (MTT, cat. no. 475989, Calbiochem, Merck KGaA, Darmstadt, Germany). The SH-SY5Y and bEnd3 cell lines were seeded in 96-well plates at a density of 0.7 × 10^4 (bEnd3) or 2 × 10^4 (SH-SY5Y) cells/well and allowed to adhere for 24 h at 37 °C, 5% CO2. Then, the cells were incubated with the compounds (1–500 μM) for a preset time (24 h). For the solvent, the control cells were treated with DMSO corresponding to the highest concentration of DMSO in the samples (0.5% DMSO) in order to exclude its cytotoxic effect on the cells. For each concentration, a set of at least 6 wells were used. After incubation, the solution from each well was exchanged with fresh culture medium (100 µL/well), containing the MTT reagent (0.5 mg/mL) and incubated for 3 h at 37 °C in a humidified atmosphere and 5% CO2. The obtained formazan crystals were dissolved in 100 µL/well of 5% formic acid in propan-2-ol solution (or DMSO). The absorbance was measured at 570 nm via multiplate reader Tecan Infinite F200 PRO (Tecan Trading AG., Männedorf, Switzerland) or Synergy 2 (BioTek Instruments, Inc., Highland Park, Winooski, VT, USA).
Both the SH-SY5Y and bEnd3 cells were treated with the test compounds in a concentration range from 1 to 500 µM for 24 h.

bEnd3 monolayer = experiment: Permeability assay, static BBB model of bEnd3 monolayer (streptavidin-HRP passage); assay type: cell-based, mouse; details: 90 min
Procedure: To evaluate the compounds’ effect on a BBB model, bEnd3 endothelial cells were seeded on polycarbon (PC) cell-culture inserts with 0.4 µm pore size (cat. no. 1CH3.1, BRAND GMBH + CO KG, Wertheim, Germany) and a density of 5.6 × 10^3 cells/insert. The inserts were placed in a 24-well plate containing 1 mL of cell-culture medium. […] On the second day of incubation, the cell-culture medium was refreshed. To ensure 100% confluence, the inserts were evaluated for medium leakage before the experiment. […] Following the incubation, the inserts were placed in a new 24-well plate containing 1 mL Phenol Red free–DMEM (cat. no. D1145, Sigma-Aldrich Co. LLC, St. Louis, MO, USA) without serum. In the upper chamber, a solution of streptavidin, conjugated with horse-radish peroxidase (HRP, cat. no. SA00001-0, Proteintech, Rosemont, Illinois, USA) (1:1000) in serum-free phenol red medium was added. The cells were further incubated for 5 min at 37 °C and 5% CO2, after which the inserts were removed. The remaining medium in the 24-well plate was collected and vortexed briefly, and 3 × 50 µL aliquots were transferred into a 96-well plate. A total of 50 µL TMB Signal+ substrate solution (BUF054A, Bio-Rad, Hercules, CA, USA) was added to each well and incubated for 5 min at 37 °C. The HRP converted the TMB to a blue-colored product. To stop the reaction, 50 µL of 0.2 N H2SO4 was added that caused the blue color to turn yellow. […] Each condition was tested at least twice.
To further explore the neuroprotective effect of the compounds, we tested their ability to influence the BBB and its permeability, utilizing a static BBB model with brain microvascular endothelial cell line bEnd3 [36], as it would be essential for the compounds to pass the BBB and protect the neuronal cells. In addition to their endothelial origin, the bEnd3 cells were strongly connected by specific proteins (ZO-1, claudin-5) forming tight junctions (TJs). This was crucial for preventing unregulated […] transport and sustaining the apical–basal polarity of the monolayer. Here, we determined any changes in the permeability of the BBB by imitating an endothelial barrier via a static BBB model of bEnd3 cells (Figure 11a,c,e). This allowed us to determine the possibility of drug passage. It should be noted, that even though drug passage was desirable, any irreversible modifications of the cell monolayer and the TJs were considered threatening. Therefore, in parallel to the permeability tests, the bEnd3 cells were stained for TJ-formation and ZO-1 distribution (Figure 11b,d,f).

[3] = tested on: isolated rat-brain synaptosomes; experiment: 6-OHDA-induced neurotoxicity in isolated rat synaptosomes, synaptosomal viability; assay type: cell-based; details: 10 µM pre-incubation 30 min, then 150 µM 6-OHDA 1 h; for viability at 10 µM: Rattus norvegicus, read-out: synaptosomal viability (SV) preserved, as compared to 6-OHDA
Procedure: This neurotoxicity model was based on the metabolism and auto-oxidation of 6-hydroxy dopamine responsible for the reactive oxygen species and quinones generation, ultimately leading to neurotoxicity and neurodegeneration. The experiment was performed by pre-incubation of the synaptosomes with 10 µM of the compounds for 30 min, followed by the addition of 150 µM 6-hydroxy dopamine for induction of neurotoxicity. After 1 h, they were centrifuged twice for 1 min at 15,000 × g. After the second wash, the precipitates were resolved with buffer B and glucose.

COc1ccc2[nH]c(C(=O)NN=Cc3cccc(O)c3O)cc2c1 [Compound 5a, N′-(2,3-Dihydroxybenzylidene)-5-methoxy-1H-indole-2-carbohydrazide]
decrease of NBT reduction as compared to the controls [1]: less than 15%
melting point: 262 to 263 °C
IC50 at 24 h [2]: 79.3 µM
change of permeability of bEnd3 monolayer vs. control (in words) (bEnd3 monolayer; 10 µM): passage through the BBB model was induced
change of permeability of bEnd3 monolayer vs. control (in words) (bEnd3 monolayer; 50 µM): reduced the permeability
viability at 10 µM [3]: 56%

COc1ccc2[nH]cc(CCNC(C)=O)c2c1 [Melatonin]
IC50 at 24 h [2]: > 500 µM
influence on the permeability of the monolayer (in words) (bEnd3 monolayer; 10 or 50 µM): did not influence the permeability
viability at 10 µM [3]: 78%

COc1ccc2[nH]c(C(=O)NN=Cc3ccc(O)c(OC)c3)cc2c1 [Compound 5d, N′-(4-Hydroxy-3-methoxybenzylidene)-5-methoxy-1H-indole-2-carbohydrazide]
increase of absorbance ratio as compared to the controls [1]: 23%
melting point: 261 °C
IC50 at 24 h [2]: 98.2 µM
change of permeability of bEnd3 monolayer vs. control (in words) (bEnd3 monolayer; 10 µM): decreased it
viability at 10 µM [3]: 44%

COc1cc(C=NNC(=O)CCc2c[nH]c3ccccc23)ccc1O [Compound 3d, N′-(4-Hydroxy-3-methoxybenzylidene)-3-(1H-indol-3-yl)propanehydrazide]
decrease of NBT reduction as compared to the controls [1]: less than 15%
melting point: 157 to 158 °C
IC50 at 24 h [2]: 156 µM
change of permeability of bEnd3 monolayer vs. control (in words) (bEnd3 monolayer; 50 µM): increased the permeability
viability at 10 µM [3]: 33%

COc1ccc(C=NNC(=O)c2cc3cc(OC)ccc3[nH]2)c(O)c1 [Compound 5e, N′-(2-Hydroxy-4-methoxybenzylidene)-5-methoxy-1H-indole-2-carbohydrazide]
increase of absorbance ratio as compared to the controls [1]: 40%
IC50 at 24 h [2]: 200 µM
viability at 10 µM [3]: 56%

COc1ccc2[nH]c(C(=O)NN=Cc3cc(OC)c(O)c(OC)c3)cc2c1 [Compound 5f, N′-(4-Hydroxy-3,5-dimethoxybenzylidene)-5-methoxy-1H-indole-2-carbohydrazide]
increase of absorbance ratio as compared to the controls [1]: 8%
melting point: 239 to 240 °C
IC50 at 24 h [2]: 287 µM
change of permeability of bEnd3 monolayer vs. control (in words) (bEnd3 monolayer; 10 µM): decreased it
viability at 10 µM [3]: 56%

COc1cc(C=NNC(=O)CCc2c[nH]c3ccccc23)cc(OC)c1O [Compound 3f, N′-(4-Hydroxy-3,5-dimethoxybenzylidene)-3-(1H-indol-3-yl)propanehydrazide]
decrease of NBT reduction as compared to the controls [1]: less than 15%
melting point: 134 to 135 °C
IC50 at 24 h [2]: > 500 µM
increase in the permeability of bEnd3 monolayer (bEnd3 monolayer; 10 µM): 0.5 times
change of permeability of bEnd3 monolayer vs. control (in words) (bEnd3 monolayer; 50 µM): increased the permeability
viability at 10 µM [3]: 44%

COc1ccc2[nH]c(C(=O)NN=Cc3ccc(O)cc3O)cc2c1 [Compound 5c, N′-(2,4-Dihydroxybenzylidene)-5-methoxy-1H-indole-2-carbohydrazide]
absorbance ratio (NBT reduction, % of control) [1]: did not influence the estimated absorbance ratio at any of the tested concentrations
IC50 at 24 h [2]: 73.9 µM
change of permeability of bEnd3 monolayer vs. control (in words) (bEnd3 monolayer; 50 µM): reduced the permeability
viability at 10 µM [3]: 44%

N′-(4-Hydroxy-2-methoxybenzylidene)-3-(1H-indol-3-yl)propanehydrazide [Compound 3e]
absorbance ratio (NBT reduction, % of control) [1]: approximately 135%
change of permeability of bEnd3 monolayer vs. control (in words) (bEnd3 monolayer; 50 µM): increased the permeability
synaptosomal viability (SV) preserved, as compared to 6-OHDA [3]: 33%

COc1ccc2[nH]c(C(=O)NN=Cc3ccc(O)c(O)c3)cc2c1 [Compound 5b, N′-(3,4-Dihydroxybenzylidene)-5-methoxy-1H-indole-2-carbohydrazide]
NBT reduction decreased to ([1]; 10 µM): 20%
melting point: 252 to 253 °C
IC50 at 24 h [2]: 111 µM
change of permeability of bEnd3 monolayer vs. control (in words) (bEnd3 monolayer; 10 µM): passage through the BBB model was induced
change of permeability of bEnd3 monolayer vs. control (in words) (bEnd3 monolayer; 50 µM): reduced the permeability
viability at 10 µM [3]: 44%
